As usually defined, the IC50 is the point on the concentration scale where inhibition reaches its midpoint. By inhibition is commonly meant the drop in the measured response relative to a control, in per cent.

We go through one compound from ChEMBL document CHEMBL5696439 (Cancer Res, 2010).

Molecules are shown by their SMILES. Active and inactive are the calls of the source. No cut-off for these calls is given here.

One assay relates to HCT-116. Briefly: Antiproliferative activity against human HCT-116 cells assessed as cell growth inhibition incubated for 24 hrs by MTS assay. Type of assay: functional, cell-based. Conditions: HCT-116, 24 h.
The target of assay [1] is cGMP-dependent protein kinase 1 (Homo sapiens) (UniProt Q13976). Put plainly: Inhibition of recombinant human full length GST-tagged PRKG1 expressed in baculovirus expression system at 2 uM using Ser/Thr 01 as substrate measured after 1 hr by Z'-LYTE assay relative to control.
The target in assay [2] is RAC-gamma serine/threonine-protein kinase (Homo sapiens) (UniProt Q9Y243). Put plainly: Inhibition of recombinant human full-length His-tagged AKT3 expressed in insect cells at 2 uM using Ser/Thr 06 as substrate measured after 1 hr by Z'-LYTE assay relative to control. Conditions: Insect cell.
For assay [3], the target named is Aurora kinase B (Homo sapiens) (UniProt Q96GD4). Put plainly: Inhibition of recombinant human full-length His-tagged AURKB expressed in insect cells at 2 uM using Ser/Thr 01 as substrate measured after 1 hr by Z'-LYTE assay relative to control. Conditions: Insect cell.
Assay [4] concerns MDA-MB-361. Put plainly: Antitumor activity against human MDA-MB-361 cells xenografted in female nude mouse model assessed as P-AKT at T308 level at 6 to 12 mg/kg, po qd administered as 5 days on/2 days off regimen for 4 cycles by immunoblot analysis. Conditions: dose 6-12 mg/kg, time 28.0 day. Type of assay: functional, organism-based.
Assay [5] deals with MDA-MB-361. Put plainly: Induction of apoptosis in HER2 hyperactive human MDA-MB-361 cells assessed as cell death at 0.001 to 100 micromol/L incubated for 24 hrs by FACS analysis. Conditions: dose 0.001-100 µmol/L. The format is functional, cell-based. Background: In flow cytometry, cells or beads pass a laser one at a time.
The target of assay [6] is Macrophage-stimulating protein receptor (Homo sapiens) (UniProt Q04912). Briefly: Inhibition of recombinant human GST-tagged MST1R (983-1400 residues) expressed in insect cells at 2 uM using Tyr 06 as substrate measured after 1 hr by Z'-LYTE assay relative to control. Conditions: Insect cell.
The next assay concerns the target mTORC2 (Homo sapiens) (UniProt P42345+Q6R327+Q9BVC4+Q9BPZ7). Conditions: PC3MM2, dose 0.1-1 µM, time 6.0 hrs.
The target of assay [7] is Tyrosine-protein kinase JAK2 (Homo sapiens) (UniProt O60674). Put plainly: Inhibition of recombinant human GST-tagged JAK2 JH1 JH2 domains (532-1132 residues) expressed in insect cells at 2 uM using Tyr 06 as substrate measured after 1 hr by Z'-LYTE assay relative to control. Conditions: Insect cell.
Another assay relates to NCI-H1975. Put plainly: Induction of apoptosis in human NCI-H1975 cells assessed as increase in PARP cleavage at 0.3 to 3 micromol/L incubated for 48 hrs by Western blot analysis. Type of assay: functional, cell-based. Conditions: dose 0.3-3 µmol/L. A general note: In western blotting, separated proteins are transferred to a membrane and probed.
For assay [8], the target named is Serine/threonine-protein kinase Sgk3 (Homo sapiens) (UniProt Q96BR1). Put plainly: Inhibition of recombinant human GST-tagged SGK3 (87-496 residues) expressed in insect cells at 2 uM using Ser/Thr 06 as substrate measured after 1 hr by Z'-LYTE assay relative to control. Conditions: Insect cell.
The target in assay [9] is Tyrosine-protein kinase Lyn (Homo sapiens) (UniProt P07948). Briefly: Inhibition of recombinant human full length His-tagged LYN B expressed in baculovirus expression system at 2 uM using Tyr 02 as substrate measured after 1 hr by Z'-LYTE assay relative to control.
Sequence of Tyrosine-protein kinase Lyn (Homo sapiens) (P07948 2-512 limits assumed): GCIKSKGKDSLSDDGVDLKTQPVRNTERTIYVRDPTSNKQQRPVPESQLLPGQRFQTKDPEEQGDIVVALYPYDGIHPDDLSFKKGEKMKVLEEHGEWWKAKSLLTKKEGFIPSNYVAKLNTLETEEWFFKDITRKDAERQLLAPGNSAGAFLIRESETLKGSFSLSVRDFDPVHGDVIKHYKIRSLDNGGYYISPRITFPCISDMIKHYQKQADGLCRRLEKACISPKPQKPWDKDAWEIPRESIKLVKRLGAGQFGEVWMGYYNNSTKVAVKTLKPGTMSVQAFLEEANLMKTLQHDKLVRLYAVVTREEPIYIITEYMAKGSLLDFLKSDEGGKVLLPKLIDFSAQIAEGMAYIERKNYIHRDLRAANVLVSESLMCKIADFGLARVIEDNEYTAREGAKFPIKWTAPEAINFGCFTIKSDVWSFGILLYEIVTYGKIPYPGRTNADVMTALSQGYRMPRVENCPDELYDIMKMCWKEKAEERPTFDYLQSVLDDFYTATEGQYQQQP

Sequence of Serine/threonine-protein kinase Sgk3 (Homo sapiens) (Q96BR1 whole entry, the tested form may be a part): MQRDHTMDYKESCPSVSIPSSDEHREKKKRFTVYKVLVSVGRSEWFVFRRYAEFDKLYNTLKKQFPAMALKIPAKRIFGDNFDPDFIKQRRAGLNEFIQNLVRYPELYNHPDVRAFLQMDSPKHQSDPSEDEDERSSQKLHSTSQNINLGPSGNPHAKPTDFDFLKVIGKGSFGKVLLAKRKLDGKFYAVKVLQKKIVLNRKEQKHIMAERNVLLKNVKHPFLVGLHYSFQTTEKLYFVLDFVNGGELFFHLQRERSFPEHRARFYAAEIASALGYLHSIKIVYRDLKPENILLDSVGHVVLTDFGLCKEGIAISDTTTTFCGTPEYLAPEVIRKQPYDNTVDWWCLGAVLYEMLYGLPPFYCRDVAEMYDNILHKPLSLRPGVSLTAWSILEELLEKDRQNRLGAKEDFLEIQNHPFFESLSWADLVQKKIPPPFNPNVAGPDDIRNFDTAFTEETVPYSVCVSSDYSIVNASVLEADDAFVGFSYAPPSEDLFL
Sequence of cGMP-dependent protein kinase 1 (Homo sapiens) (Q13976 whole entry): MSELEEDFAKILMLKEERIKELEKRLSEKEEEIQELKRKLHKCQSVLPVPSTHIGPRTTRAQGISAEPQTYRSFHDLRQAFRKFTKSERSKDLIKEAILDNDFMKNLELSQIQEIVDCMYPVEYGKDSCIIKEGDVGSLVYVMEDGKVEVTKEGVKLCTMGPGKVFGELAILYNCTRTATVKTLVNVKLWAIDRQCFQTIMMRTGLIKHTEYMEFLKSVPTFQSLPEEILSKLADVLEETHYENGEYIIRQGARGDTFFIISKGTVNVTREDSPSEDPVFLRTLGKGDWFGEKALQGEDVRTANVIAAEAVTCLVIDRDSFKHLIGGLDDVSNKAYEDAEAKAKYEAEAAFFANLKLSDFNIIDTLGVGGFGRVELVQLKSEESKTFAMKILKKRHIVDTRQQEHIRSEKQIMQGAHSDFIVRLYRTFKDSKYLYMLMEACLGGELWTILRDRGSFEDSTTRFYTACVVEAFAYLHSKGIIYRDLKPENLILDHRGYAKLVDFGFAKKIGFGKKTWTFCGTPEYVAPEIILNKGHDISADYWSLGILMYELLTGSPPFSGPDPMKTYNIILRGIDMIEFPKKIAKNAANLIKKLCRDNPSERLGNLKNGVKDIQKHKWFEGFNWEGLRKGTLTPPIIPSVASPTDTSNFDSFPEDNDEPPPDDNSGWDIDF
Sequence of Tyrosine-protein kinase JAK2 (Homo sapiens) (O60674 whole entry, the tested form may be a part): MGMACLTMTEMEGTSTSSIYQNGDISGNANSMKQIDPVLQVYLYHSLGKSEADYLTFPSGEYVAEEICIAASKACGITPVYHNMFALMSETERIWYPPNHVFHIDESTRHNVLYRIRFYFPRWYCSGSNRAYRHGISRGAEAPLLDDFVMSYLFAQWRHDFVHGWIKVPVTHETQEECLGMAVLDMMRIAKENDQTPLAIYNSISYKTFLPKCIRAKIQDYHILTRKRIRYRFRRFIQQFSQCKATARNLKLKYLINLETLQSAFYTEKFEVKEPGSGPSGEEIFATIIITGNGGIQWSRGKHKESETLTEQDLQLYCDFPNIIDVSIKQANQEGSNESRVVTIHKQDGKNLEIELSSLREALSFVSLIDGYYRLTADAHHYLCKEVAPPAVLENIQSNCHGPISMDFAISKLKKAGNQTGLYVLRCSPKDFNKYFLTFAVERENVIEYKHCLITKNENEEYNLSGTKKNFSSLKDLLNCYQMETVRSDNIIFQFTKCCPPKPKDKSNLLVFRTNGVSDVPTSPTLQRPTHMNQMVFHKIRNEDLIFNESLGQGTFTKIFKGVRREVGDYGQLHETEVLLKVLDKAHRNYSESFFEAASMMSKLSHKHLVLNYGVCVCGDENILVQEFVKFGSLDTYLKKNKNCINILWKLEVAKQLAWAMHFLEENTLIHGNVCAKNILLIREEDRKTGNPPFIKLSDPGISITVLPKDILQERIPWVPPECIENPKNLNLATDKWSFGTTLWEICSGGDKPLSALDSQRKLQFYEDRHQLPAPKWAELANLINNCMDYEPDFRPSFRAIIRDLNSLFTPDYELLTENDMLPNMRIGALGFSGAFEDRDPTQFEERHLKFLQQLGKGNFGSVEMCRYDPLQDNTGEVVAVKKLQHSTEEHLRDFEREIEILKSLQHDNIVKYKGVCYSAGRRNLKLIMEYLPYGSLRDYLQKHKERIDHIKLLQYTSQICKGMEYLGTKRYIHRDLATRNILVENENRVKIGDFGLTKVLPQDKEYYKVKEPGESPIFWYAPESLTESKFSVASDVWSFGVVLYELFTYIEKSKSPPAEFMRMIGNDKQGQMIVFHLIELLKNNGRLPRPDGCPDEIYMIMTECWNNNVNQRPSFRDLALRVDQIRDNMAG
Sequence of RAC-gamma serine/threonine-protein kinase (Homo sapiens) (Q9Y243 whole entry): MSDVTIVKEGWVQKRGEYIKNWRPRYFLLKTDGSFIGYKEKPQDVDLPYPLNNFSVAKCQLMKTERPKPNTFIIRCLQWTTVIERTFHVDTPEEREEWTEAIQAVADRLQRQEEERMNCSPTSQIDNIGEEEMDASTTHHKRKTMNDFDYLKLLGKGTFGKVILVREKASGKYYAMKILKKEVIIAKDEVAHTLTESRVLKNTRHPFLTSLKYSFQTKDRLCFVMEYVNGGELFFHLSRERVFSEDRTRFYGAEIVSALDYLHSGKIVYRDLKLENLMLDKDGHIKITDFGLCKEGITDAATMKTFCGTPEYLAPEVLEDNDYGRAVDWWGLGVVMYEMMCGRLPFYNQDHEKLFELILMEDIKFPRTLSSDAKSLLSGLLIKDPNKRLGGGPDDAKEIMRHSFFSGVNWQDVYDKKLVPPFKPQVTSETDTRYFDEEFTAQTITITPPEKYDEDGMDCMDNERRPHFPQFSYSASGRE
Sequence of Aurora kinase B (Homo sapiens) (Q96GD4 whole entry): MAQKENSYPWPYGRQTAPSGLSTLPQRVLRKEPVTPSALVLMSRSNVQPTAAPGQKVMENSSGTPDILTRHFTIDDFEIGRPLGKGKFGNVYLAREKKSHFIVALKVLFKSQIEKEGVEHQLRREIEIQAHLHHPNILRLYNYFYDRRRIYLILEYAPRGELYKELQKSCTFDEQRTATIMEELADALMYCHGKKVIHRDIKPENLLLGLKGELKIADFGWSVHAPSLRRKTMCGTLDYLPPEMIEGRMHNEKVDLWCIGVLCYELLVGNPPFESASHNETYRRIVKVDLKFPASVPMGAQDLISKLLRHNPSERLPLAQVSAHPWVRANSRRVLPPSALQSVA
Sequence of Macrophage-stimulating protein receptor (Homo sapiens) (Q04912 25-304 limits assumed): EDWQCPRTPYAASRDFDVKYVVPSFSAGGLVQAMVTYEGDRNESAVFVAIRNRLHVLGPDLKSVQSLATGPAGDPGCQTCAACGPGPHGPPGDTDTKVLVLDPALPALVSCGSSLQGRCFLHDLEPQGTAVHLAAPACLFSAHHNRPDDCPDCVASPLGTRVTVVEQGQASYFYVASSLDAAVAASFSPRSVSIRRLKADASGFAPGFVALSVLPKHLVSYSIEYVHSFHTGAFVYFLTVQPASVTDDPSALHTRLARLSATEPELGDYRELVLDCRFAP
Sequence of Macrophage-stimulating protein receptor (Homo sapiens) (Q04912 310-1400 limits assumed): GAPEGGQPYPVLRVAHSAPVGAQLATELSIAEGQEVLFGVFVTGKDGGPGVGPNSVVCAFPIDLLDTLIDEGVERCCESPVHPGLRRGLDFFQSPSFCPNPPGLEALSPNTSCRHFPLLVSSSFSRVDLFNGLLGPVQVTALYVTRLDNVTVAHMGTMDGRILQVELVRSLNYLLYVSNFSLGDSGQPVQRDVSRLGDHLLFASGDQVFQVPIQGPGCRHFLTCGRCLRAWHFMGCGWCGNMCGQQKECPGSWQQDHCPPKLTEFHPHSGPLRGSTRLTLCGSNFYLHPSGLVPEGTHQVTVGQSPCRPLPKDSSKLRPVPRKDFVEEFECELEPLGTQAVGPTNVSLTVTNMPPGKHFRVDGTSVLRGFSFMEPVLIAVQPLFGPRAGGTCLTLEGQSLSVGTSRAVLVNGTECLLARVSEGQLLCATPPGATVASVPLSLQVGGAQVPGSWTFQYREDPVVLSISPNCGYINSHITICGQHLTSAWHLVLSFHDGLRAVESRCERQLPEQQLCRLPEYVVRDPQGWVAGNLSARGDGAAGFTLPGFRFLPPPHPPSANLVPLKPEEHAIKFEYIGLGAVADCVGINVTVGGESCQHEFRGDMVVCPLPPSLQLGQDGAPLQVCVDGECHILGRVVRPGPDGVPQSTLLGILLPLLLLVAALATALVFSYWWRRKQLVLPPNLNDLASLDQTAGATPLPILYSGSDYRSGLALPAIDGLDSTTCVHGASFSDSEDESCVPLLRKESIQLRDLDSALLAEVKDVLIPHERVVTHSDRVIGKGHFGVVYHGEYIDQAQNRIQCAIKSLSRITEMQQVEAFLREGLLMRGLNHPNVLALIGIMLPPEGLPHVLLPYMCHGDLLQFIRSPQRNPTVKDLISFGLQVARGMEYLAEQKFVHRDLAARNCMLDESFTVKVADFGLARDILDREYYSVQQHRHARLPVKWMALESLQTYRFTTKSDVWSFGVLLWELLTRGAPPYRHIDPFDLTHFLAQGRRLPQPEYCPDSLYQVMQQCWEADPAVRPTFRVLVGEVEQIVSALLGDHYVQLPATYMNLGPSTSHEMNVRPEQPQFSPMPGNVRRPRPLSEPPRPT
Description for mTORC2 (Homo sapiens): Inhibition of mTORC2 in human PC3MM2 cells assessed as change in ERK phosphorylation level at 0.1 to 1 uM incubated for 6 hrs by immunoblot assay

On to `CNC(=O)Nc1ccc(-c2nc(N3CC4CCC(C3)O4)c3cnn(C4CCC5(CC4)OCCO5)c3n2)cc1`, for which the IC50 with HCT-116 came out at 380 nM. Moreover, the inhibition in assay [1] was 1%; in assay [2] it was 2%; in assay [3], 3%; in assay [6], -1%; in assay [7], 2%; in [8], 3%. For the same compound, in assay [9], the inhibition stood at 5%. For the same compound, in the assay on MDA-MB-361 [4], the result was inactive. The result with MDA-MB-361 [5] and with NCI-H1975 was Active. In addition, the inhibition result at mTORC2 (Homo sapiens) is “inactive”.
